Measured values as given in patent publication US20230331707A1, “PROGRAMMED CELL NECROSIS INHIBITOR, PREPARATION METHOD THEREFOR, AND USE THEREOF” (Shanghai Institute of Organic Chemistry, Chinese Academy of …, priority 2020, published 2023).
Read-outs that look alike come from different tables or passages of the source.

Assays:
FADD−/− Jurkat cells = assay: Inhibition of TNF-induced programmed necrosis of FADD deficient Jurkat cells (Cell Titer-Glo viability); format: cell-based; details: for EC50: FADD−/− Jurkat cells
Source text: (§1) The adopted biological assay protocol was: the effect of compounds on programmed necroptosis of TNF-induced FADD (Fas-Associated Death Domain) deficient Jurkat cells and L929 cells.
(§2) In order to verify the inhibitory effect of the compounds of the present invention on programmed cell necrosis at the cellular level, cell types that is closely related to the RIP1 pathway, namely FADD deficient Jurkat cells (human peripheral blood leukemia T cell strain) and L929 cells, were selected. Two different stimulation methods were used: tumor necrosis factor (TNFα) was used alone, or TNFα was used in combination with mitochondria-derived cysteine aspartate activator (SMAC) SM164. Cells viability was calculated by detecting chemiluminescence values, thereby obtaining the biological activity of the compound on the inhibition of programmed cell necrosis.
(§3) Methods: FADD deficient Jurkat cells: FADD deficient Jurkat cells (human peripheral blood leukemia T cell line) were cultured in vitro. After growing to the logarithmic growth phase, the cells were collected, centrifuged at 1000 rpm for 5 min, the supernatant was discarded, and the cell concentration was adjusted to 2.5×10^5/mL. Cells were seeded into 384-well plates, 40 μl per well. 5 μL of SM164 (50 nM) diluted in cell culture medium and 5 μL of each compound were added to the corresponding wells. After pretreatment at 37° C. for 1 h, 5 μL of TNFα (50 ng/mL) diluted in cell culture medium was added to each well of the stimulation group, and 5 μL of the culture medium was added to the control group. The plate was cultured in a cell incubator (37° C., 5% CO2) for 14 h, and […] of Cell Titer-Glo solution was added to each well, then incubated for 30 min at room temperature, and intracellular ATP level was measured by detecting luminescence. The unstimulated DMSO control wells were taken as 100% cell viability. L929 cells: The L929 cells (mouse fibroblasts) were cultured in vitro, digested and diluted to 6.25×10^4/ml, and the cells were seeded into 384-well plates, 40 μl per well. The plate was placed in a cell incubator (37° C., 5% CO2) for 12 hours. 5 μL of SM164 (500 nM) diluted in cell culture medium and 5 μL of each compound were added to the corresponding wells. After pretreatment at 37° C. for 1 h, 5 μL of TNFα (500 ng/mL) diluted in cell culture medium was added to each well of the stimulation group, and 5 μL of the culture medium was added to the control group. After the plate was cultured for 14 h in a cell incubator (37° C., 5% CO2), 15 μl of Cell Titer-Glo solution was added to each well. The plate was incubated at room temperature for 30 min, and intracellular ATP level was measured by detecting luminescence. The unstimulated DMSO control wells were taken as 100% cell viability. EC50 values of the compounds were calculated using Prism Graphpad statistical software.

L929 cells = assay: Inhibition of TNF-induced programmed necrosis of L929 cells (Cell Titer-Glo viability); format: cell-based, mouse
Source text: as §1, §2, §3

[1] = Homo sapiens, Jurkat, 14 h, stimulated with TNFα + SM164, read-out: EC50 (μM) FADD−/− Jurkat cells (human) TNFα + SM164
[2] = Homo sapiens, Jurkat, stimulated with TNFα alone, read-out: EC50 (μM) FADD−/− Jurkat cells (human) TNFα
[3] = Mus musculus, L929, L929 cells, stimulated with TNFα + SM164, read-out: EC50 (μM) L929 cells (mouse) TNFα + SM164
[4] = Mus musculus, L929, L929 cells, stimulated with TNFα alone, read-out: EC50 (μM) L929 cells (mouse) TNFα
[5] = stimulated with TNFα + SM164, read-out: EC50 (μM) FADD−/− Jurkat cells (human) TNFα + SM164
[6] = stimulated with TNFα alone, read-out: EC50 (μM) FADD−/− Jurkat cells (human) TNFα

SMILES	EC50 (FADD−/− Jurkat cells; [1])	EC50 (FADD−/− Jurkat cells; [2])	EC50 (L929 cells; [3])	EC50 (L929 cells; [4])	activity of inhibition of programmed necrosis compared with GSK2982772 (FADD−/− Jurkat cells; human FADD-deficient Jurkat cells, TNFα alone or in combination with SM164)	EC50 (FADD−/− Jurkat cells; [5])	EC50 (FADD−/− Jurkat cells; [6])	EC50 (L929 cells; L929 cells, stimulated with TNFα + SM164, read-out: EC50 (μM) L929 cells (mouse) TNFα + SM164)	EC50 (L929 cells; L929 cells, stimulated with TNFα alone, read-out: EC50 (μM) L929 cells (mouse) TNFα)
CNC(=O)c1ccc2c(c1)ncn2-c1ccc(NC(=O)c2nocc2Cc2ccccc2)cc1 [QY-6-15]	> 10000 nM	1370 nM	> 10000 nM	> 10000 nM	–	–	–	–	–
C[C@H](NC(=O)c1cnn(C)c1Cc1ccccc1)c1ccc(-n2cnc3c(N)ncnc32)cc1 [QY-13-31]	0.305 nM	0.084 nM	0.553 nM	0.437 nM	stronger activity	–	–	–	–
Nc1ncnc2c1ccn2-c1ccc(CNC(=O)c2cc(Cc3ccccc3)on2)cc1 [QY-8-48]	> 10000 nM	972 nM	> 10000 nM	> 10000 nM	–	–	–	–	–
Nc1ncnc2c1ncn2-c1ccc(CNC(=O)c2ccc(F)n2Cc2ccccc2)cc1 [ZSQ-21-30]	1.6 nM	0.0853 nM	7.41 nM	0.916 nM	–	–	–	–	–
CN(C)CCNC(=O)c1ccc2ncn(-c3ccc(CNC(=O)c4cnn(C)c4Cc4ccccc4)cc3)c2c1 [QY-11-74A]	368 nM	53 nM	> 10000 nM	> 10000 nM	–	–	–	–	–
CC(NC(=O)c1cnn(C)c1Cc1ccccc1)c1ccc(-n2cnc3c(N)ncnc32)cc1 (stereo not shown) [QY-12-31]	0.254 nM	0.0967 nM	0.569 nM	0.356 nM	–	–	–	–	–
CNC(=O)c1ccc2c(c1)ncn2-c1ccc(CC(=O)NC(C)(C)C(=O)N2CCCC2c2ccc(C)cc2)cc1 (stereo not shown) [QY-8-42]	> 10000 nM	> 10000 nM	> 10000 nM	> 10000 nM	–	–	–	–	–
CNC(=O)c1ccc2c(ccn2-c2ccc(CNC(=O)c3cc(Cc4ccccc4)n(C)n3)cc2)c1 [ZSQ-15-68]	670 nM	115 nM	1800 nM	610 nM	–	–	–	–	–
Cn1ncc(C(=O)NCc2ccc(-c3ncnc4[nH]ccc34)cc2)c1Cc1ccccc1 [QY-11-80]	482 nM	35 nM	3460 nM	1970 nM	–	–	–	–	–
CN(C)CCNC(=O)c1ccc2c(c1)ncn2-c1ccc(CNC(=O)c2cnn(C)c2Cc2ccccc2)cc1 [QY-11-74B]	3.73 nM	0.293 nM	0.687 nM	0.386 nM	–	–	–	–	–
CN1CCN(CCNC(=O)c2ccc3ncn(-c4ccc(CNC(=O)c5cnn(C)c5Cc5ccccc5)cc4)c3c2)CC1 [QY-11-69A]	194 nM	3 nM	> 10000 nM	> 10000 nM	–	–	–	–	–
Nc1ncnc2c1ccn2-c1ccc(CNC(=O)c2nnn(Cc3ccccc3)n2)cc1 [QY-8-58, N-(4-(4-amino-7H-pyrrolo[2,3-d]pyrimidin-7-yl)benzyl)-2-benzyl-2H-tetrazol-5-carboxamide]	577 nM	196 nM	> 10000 nM	> 10000 nM	–	–	–	–	–
COc1ccc2c(c1)ncn2-c1ccc(CNC(=O)c2cnn(C)c2Cc2ccccc2)cc1 [QY-11-102A]	–	–	0.0793 nM	0.00513 nM	–	0.0649 nM	0.00168 nM	–	–
CNC(=O)c1ccc2c(c1)ncn2-c1ccc(CNC(=O)c2cn(Cc3ccccc3)nn2)cc1 [ZSQ-13-35]	1590 nM	233 nM	> 10000 nM	> 10000 nM	–	–	–	–	–
COc1ccc2ncn(-c3ccc(CNC(=O)c4cnn(C)c4Cc4ccccc4)cc3)c2c1 [QY-11-102B]	0.306 nM	0.0133 nM	0.424 nM	0.0278 nM	–	–	–	–	–
Nc1ncnc2c1ncn2-c1ccc(CNC(=O)Cc2cccc(OC(F)(F)F)c2)cc1 [QY-9-70]	> 10000 nM	2960 nM	6300 nM	350 nM	–	–	–	–	–
Cn1nc(C(=O)NCc2ccc(-n3ncc4c(N)ncnc43)cc2)cc1Cc1ccccc1 [ZSQ-15-48]	451 nM	70.9 nM	> 10000 nM	6550 nM	–	–	–	–	–
CCCn1nc(C(=O)NCc2ccc(-n3cnc4cc(C(=O)NC)ccc43)cc2)cc1Cc1ccccc1 [XHJ-4-48]	738 nM	109 nM	> 10000 nM	3010 nM	–	–	–	–	–
Cn1ncc(C(=O)NCc2ccc(-n3cnc4ccc(C(=O)NCCN5CCOCC5)cc43)cc2)c1Cc1ccccc1 [QY-11-68A]	3.79 nM	0.581 nM	1.58 nM	161 nM	–	–	–	–	–
Cn1nc(C(=O)NCc2ccc(-n3cnc4c(N)ncnc43)cc2)cc1Cc1ccccc1 [QY-8-31]	–	–	–	–	–	7400 nM	1300 nM	> 10000 nM	> 10000 nM
Nc1ncnc2c1ccn2-c1ccc(CNC(=O)c2ncc(Cc3ccccc3)o2)cc1 [QY-8-30, N-(4-(4-amino-7H-pyrrolo[2,3-d]pyrimidine-7-yl)benzyl)-5-benzyloxazol-2-carboxamide]	13 nM	11.2 nM	6300 nM	829 nM	–	–	–	–	–
CNC(=O)c1ccc2c(c1)ncn2-c1ccc(CNC(=O)c2cc(Cc3ccccc3)n(C)n2)cc1 [QY-7-2B, 1-(4-((5-benzyl-1-methyl-1H-pyrazole-3-carboxamido)methyl)phenyl)-N-methyl-1H-benzo[d]imidazol-5-carboxamide]	43.9 nM	5.12 nM	2020 nM	312 nM	–	–	–	–	–
Cn1nc2c(c1Cc1ccccc1)C(=O)N(Cc1ccc(-n3cnc4c(N)ncnc43)cc1)CC2 [ZSQ-22-96]	2.26 nM	0.203 nM	38.6 nM	8.38 nM	–	–	–	–	–
CNC(=O)c1ccc2c(c1)ncn2-c1ccc(CNC(=O)c2cnn(C)c2Cc2ccccc2)cc1 [QY-10-73]	5.2 nM	0.0697 nM	76.7 nM	20 nM	–	–	–	–	–
CCn1ncc(C(=O)NCc2ccc(-n3cnc4c(N)ncnc43)cc2)c1Cc1ccccc1 [QY-10-65]	34.6 nM	1.2 nM	73.8 nM	22.1 nM	–	–	–	–	–
Nc1ncnc2c1ccn2-c1ccc(CNC(=O)c2n[nH]c(Cc3ccccc3)n2)cc1 [QY-8-60, N-(4-(4-amino-7H-pyrrolo[2,3-d]pyrimidine-7-yl)benzyl)-5-benzyl-1H-1,2,4-triazol-3-carboxamide]	> 10000 nM	> 10000 nM	> 10000 nM	> 10000 nM	–	–	–	–	–
CNC(=O)c1ccc2c(c1)ncn2-c1ccc(CNC(=O)c2ccc(F)n2Cc2ccccc2)cc1 [QY-12-47]	17.4 nM	1.74 nM	34.4 nM	6 nM	–	–	–	–	–
